These results are taken from US20140113888A1, “Novel Combination of Therapeutic Agents” (Glaxo Group Limited, priority 2011, published 2014).

Series [1] is described as follows: clinical studies of fluticasone furoate (general statement). Type of series: in vivo, human.
Series [2] is described as follows: 8 week randomised, double-blind, placebo-controlled study in persistent uncontrolled asthma. The format is in vivo, human. The procedure:
In one such study, the safety and efficacy of four doses of fluticasone furoate in subjects with persistent uncontrolled asthma were evaluated. In this study, which was a randomised, double-blind, placebo-controlled, parallel group study, 598 patients received one of six treatments: fluticasone furoate (25, 50, 100 or 200 mcg) once daily, fluticasone propionate 100 mcg twice daily or placebo for 8 weeks. The primary endpoint was change from baseline in trough (pre-dose) forced expiratory volume in 1 second (FEV1) at Week 8. […] This study supports the use of fluticasone furoate (100 or 200 mcg once-daily) for the treatment of persistant uncontrolled asthma.

The target of series [3] is human M3 receptor (Homo sapiens, UniProt P20309). Nature of the series: reversibility at the human M3 receptor in vitro. The format is binding.
Series [4] can be described thus: 14-day once-daily study in subjects with COPD. Type of series: in vivo, human. The following applies: 14 days. From the text:
In addition, this study confirmed that umeclidinium bromide has a once-daily profile.

In series [5] the test system is muscarinic receptor. Nature of the series: studies in animal models and in humans: muscarinic receptor antagonism.
Series [6] is described as follows: 28 day once-daily dry powder inhaler study in subjects with COPD. Conditions: 125, 250 and 500 mcg once-daily, 28 days. The format is in vivo, human. An excerpt: A further study evaluated the efficacy and safety of three doses (125 mcg, 250 mcg and 500 mcg) of umeclidinium bromide administered once-daily via a dry powder inhaler over a 28 day period in subjects with COPD.

Series [7] in a line: clinical pharmacology studies, single inhaled doses, plethysmography (sGaw, Raw) and spirometry (FEV1). Type of series: in vivo, human. Conditions: healthy volunteers and COPD patients. The method, then:
Several clinical pharmacology studies have been conducted using umeclidinium bromide in both healthy volunteers and COPD patients to investigate the safety, tolerability, pharmacokinetics and pharmacodynamics of this compound. The bronchodilatory effects and duration of action of single inhaled doses of this compound as measured by plethysmography (sGaw, Raw) and spirometry (FEV1) were assessed in some of the above noted studies.

Series [8] in a line: duration of action in vivo, administered directly to the lungs in pre-clinical models.

Chain of human M3 receptor (P20309 whole entry): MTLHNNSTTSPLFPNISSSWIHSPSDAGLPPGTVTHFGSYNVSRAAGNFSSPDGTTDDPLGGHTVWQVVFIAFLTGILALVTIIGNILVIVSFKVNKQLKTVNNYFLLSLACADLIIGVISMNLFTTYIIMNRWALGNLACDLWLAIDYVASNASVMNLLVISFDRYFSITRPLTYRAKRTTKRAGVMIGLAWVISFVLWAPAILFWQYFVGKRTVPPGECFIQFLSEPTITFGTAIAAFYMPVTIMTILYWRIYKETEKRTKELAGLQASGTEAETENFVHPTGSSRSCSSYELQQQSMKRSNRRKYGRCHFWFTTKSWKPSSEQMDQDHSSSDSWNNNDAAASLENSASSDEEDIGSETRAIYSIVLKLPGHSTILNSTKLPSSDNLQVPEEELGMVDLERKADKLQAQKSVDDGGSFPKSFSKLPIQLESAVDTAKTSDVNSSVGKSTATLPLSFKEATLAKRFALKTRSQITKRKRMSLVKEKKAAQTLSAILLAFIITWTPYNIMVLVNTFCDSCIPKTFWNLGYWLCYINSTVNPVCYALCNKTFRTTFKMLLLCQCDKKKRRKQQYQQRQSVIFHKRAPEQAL

Consider `C[C@@H]1C[C@H]2[C@@H]3C[C@H](F)C4=CC(=O)C=C[C@]4(C)[C@@]3(F)[C@@H](O)C[C@]2(C)[C@@]1(OC(=O)c1ccco1)C(=O)SCF` [fluticasone furoate, 6α,9α-difluoro-17α-[(2-furanylcarbonyl)oxy]-11β-hydroxy-16α-methyl-3-oxo-androsta-1,4-diene-17β-carbothioic acid S-fluoromethyl ester], for which the tolerability entry in series [1] (clinical studies) was “well-tolerated”. The activity after dosing result in series [1] (inhaled) is on record as “still active 24 hours after dosing”. Further, in series [2] (50-200 mcg once daily, p<0.05), the “change from baseline in trough FEV1 at Week 8 relative to placebo” value is listed as “significantly greater increases”. In addition, the “increase in trough FEV1 at Week 8” value in series [2] (100 mcg once daily) and in series [2] (200 mcg once daily) was greater than 200 mL throughout.
Turning to `OC(c1ccccc1)(c1ccccc1)C12CC[N+](CCOCc3ccccc3)(CC1)CC2.[Br-]` [umeclidinium bromide, 4-[hydroxy(diphenyl)methyl]-1-{2-[(phenylmethyl)oxy]ethyl}-1-azoniabicyclo[2.2.2]octane bromide], the “reversibility at the human M3 receptor” value in series [3] is given as “slow reversibility”. Also, in series [4] (62.5, 125, 250, 500 and 1000 mcg once-daily), the “pulmonary function compared to placebo” value is on record as “statistically significant improvements”. Further, in series [4] (all once-daily doses 62.5-1000 mcg), the “trough FEV1 versus open label tiotropium active control (18 mcg once-daily)” value was “numerically greater improvement”. The “muscarinic receptor antagonist profile” value in series [5] is on record as “long acting high-affinity pan-active muscarinic receptor antagonist”. In series [6], the bronchodilation entry is reported as “significant bronchodilation over twenty four hours” and the safety result was “safe”. In series [7], the “bronchodilatory effects (sGaw, Raw, FEV1)” value is “clinically relevant bronchodilation” and the duration of action came out at 24 h. In series [8], the “duration of action in vivo” value is “long duration of action”.
